Where “and” joins values, the source holds several entries; their conditions need not be identical. Equal values may be shown once.

The text below walks through data of patent US20230123140A1, “DOSE TREATMENTS OF TAUOPATHIES” (AC Immune SA, priority 2020, published 2023).

Data set [1] is described as follows: Toxicokinetics in the 4-week mouse toxicity study. The conditions noted are these: for AUC(0-t) / Cmax / Tmax: plasma. In kind it is in vivo. The procedure: This study was conducted to evaluate the potential toxicity of ACI-3024 when given daily by oral gavage to CD1 mice for 4 weeks, followed by a 2-week recovery period. Doses of 100, 300 and 1000 mg/kg were administered by p.o. to 10 animals/sex/group daily. The control animals were administered vehicle. The dose volume was 10 mL/kg for all groups.

Data set [2] can be described thus: CSF concentrations of ACI-3024 in MAD cohort MAD-HV3. It counts as in vivo. The procedure:
Methods for measuring the amount of administered compound, such as ACI-3024, in CSF of a subject are well know in the art. As an example, CSF can be drawn by lumbar puncture and content of the administered compound can be analysed by a LC-MS/MS method, among other methods.
Cohorts MAD-HV1 to MAD-HV3 comprised 10 elderly non-Japanese male or female subjects, 8 were treated with ACI-3024 and 2 were being given placebo. Cohort MAD-HV4 comprised 5 non-elderly Japanese subjects (4 treated with ACI-3024 and 1 given placebo) and 5 […] (4 treated with ACI-3024 and 1 given placebo). Only subjects from MAD HV3 cohort underwent CSF samplings to explore the CSF inflammatory markers, CSF PK, and CSF PD of ACI-3024. For all subjects, dosing was on […], inclusive, and a final single dose administration occurred on […]. Dose in cohort MAD HV1 was 500 mg of ACI-3024 or placebo, QD, fasted. Dose in cohorts MAD HV2 and MAD HV4 was 500 mg of ACI-3024 or placebo, BID (“bis in die” ie., twice a day), fed. Dose in cohort MAD HV3 was 1400 mg of ACI-3024 or placebo, QD (“quaque die” (once a day), fed.

For the next data set, the system named is respiratory function. In words: Respiratory function evaluation in mice (whole body plethysmography). It counts as in vivo, mouse. The note with it: single oral administration 100, 300 and 750 mg/kg, conscious female mice. The procedure: This study was conducted to evaluate the potential modifications of respiratory function by ACI-3024 when given as single dose to CD1 mice.
Doses of 100, 300 and 750 mg/kg were administered by oral gavage to 8 females/group. The control animals were administered vehicle. The dose volume was 10 mL/kg for all groups. Animals underwent a whole body plethysmography carried out starting 30 minutes before dosing up to 5 hours after; moreover, a subsequent 1-hour registration was conducted 24 hours post dose.

In the next data set the test system is cardiovascular system. The data set can be described thus: Cardiovascular evaluation in telemetrized mini-pig. It counts as in vivo. The note with it: single oral dose 0, 50, 150 and 450 mg/kg, male Gottingen mini-pigs. As for the experimental part: This study was conducted to evaluate the potential effects on the cardiovascular system of ACI-3024 when given as single dose to telemetrized Gottingen mini-pig.
Doses of 0, 50, 150 and 450 mg/kg were administered by oral gavage to 4 males/group. The dose volume was set at 5 mL/kg. The study was a randomized cross over design which consisted of four phases separated by seven days of wash out. In each phase each animal received as single administration of one selected doses. Through the phases each animal received all the dose levels once. ECG (heart rate, duration of the PR, QRS, QT, QTcF (QT interval corrected by Fridericia) and RR intervals (millisecond; ms), blood pressure (systolic, diastolic, and mean arterial pressure) and body temperature parameters through a transmitter implanted into the animals were continuously recorded starting from 30 minutes before dosing up to 20 hours after dose. Different timepoints during the recording period were sampled (−30 min (before dose) and 1 h, 2 h, 4 h, 6 h, 8 h, 12 h and 20 h (after dose)), per each timepoint 5-minute segment was used for study purposes.

The nature of another data set: in vivo. More on the design: species or system mini-pig. The note with it: both sexes, Gottingen, minipig, po. The procedure: (§1) This study was conducted to evaluate the potential toxicity of ACI-3024 in a non-rodent species when given daily to Gottingen mini-pig for 4 weeks, followed by a 2-week recovery period.
(§2) Doses tested, 50, 150 and 450 mg/kg were given by p.o. to 3 animals/sex/group daily. The control animals were administered vehicle. The dose volume was 5 mL/kg for all groups.
(§3) Clinical signs, body weights, food consumption, electrocardiography, ophthalmology and clinical pathology were evaluated. For each sex/group, a complete necropsy was conducted on 3 animals at the end of the dosing period and on 2 (only control and high dose groups) surviving animals at end of the recovery period.

The next data set deals with Gottingen mini-pig. In words: in vivo. The note with it: minipig. As for the experimental part: as §1, §2, §3
[3] abbreviates: both sexes, mouse, Day 28, 300 mg/kg oral, average M/F CD-1 mice.
Where [4] appears, read: mouse, Day 28, 300 mg/kg oral, female CD-1 mice.
Setting [5] is: mouse, Day 28, 300 mg/kg oral, male CD-1 mice.

In the case of `Fc1ccc2c3c([nH]c2c1)CCN(c1ccc2oc(N4CCOCC4)nc2c1)C3` [ACI-3024], the “dose proportionality of plasma exposure” value in data set [1] (100 to 1000 mg/kg) is reported as “less than dose proportionally”. For the same molecule, the AUC(0-t) in data set [1] (setting [3]) came to 353 µg·h/mL; in data set [1] (setting [4]) it was 320 µg·h/mL; in data set [1] (setting [5]) it was 386 µg·h/mL. The Cmax in data set [1] (setting [3]) worked out at 25800 ng/mL; in data set [1] (setting [4]), 23400 ng/mL; in data set [1] (setting [5]), 28300 ng/mL. Moreover, the Tmax in data set [1] (setting [3]) stood at 4 h; in data set [1] (female, CD1, mouse, oral, females, high-dose group (1000 mg/kg), delayed) it was 24 h; in data set [1] (setting [4]) it was 4 h; in data set [1] (setting [5]), 4 h. The “sex difference in exposure” value in data set [1] (in general, except 300 mg/kg/day on Day 28) was “higher exposure was observed in females than in males”. Besides, the accumulation entry in data set [1] (repeated administrations, Day 1 vs. Day 28) was “slight ACI-3024 accumulation”. Further, the “CSF pre-dose concentrations versus target” value in data set [2] (MAD, 1400 mg, target established in animal models) is on record as above 30 nM. Further, the Kp in data set [2] (both sexes, human, CSF, oral, elderly subjects, multiple doses of 1400 mg QD (fed), read-out: CSF concentration as share of the corresponding plasma concentration) was 0.003 to 0.015. Besides, the “dose that would provide sufficient CSF exposure (30 nM)” value in data set [2] (extrapolated from 1400 mg CSF data) is 300 to 400 mg/day. Also, in data set [2] (multiple oral doses of 1400 mg, Day 7), the “pre-dose (Cmin) CSF concentration” value is 36.4±13.6 ng/mL and 90 nM. Besides, the “effect on respiratory parameters” value in the data set with respiratory function was “did not exert effect”. In the data set on cardiovascular system, the “effect on cardiovascular parameters and body temperature” value is “no effect”. For the same molecule, the NOAEL at 4 weeks in the data set “in vivo” came out at 450 mg/kg. Also, the body weight gain result with Gottingen mini-pig is listed as “minimal test item-related reduction”.

Usually AUC(0-t) stands for the area under the concentration-time curve up to a stated or last time point. Read a high AUC(0-t) as high exposure. By Cmax is commonly meant the peak of the concentration-time curve. For orientation: Tmax means the time from dosing to the highest level. Broadly, the NOAEL is the highest tested level that showed no adverse finding.
